Measured values taken from patent US4472304A, “(Amido)N-substituted bleomycins, salts thereof and process for preparation thereof” (Nippon Kayaku Kabushiki Kaisha, priority 1981, dated 1984).

Legend:
[1] = test system: Mycobacterium smegmatis ATCC 607; assay: Antimicrobial activity against Mycobacterium smegmatis ATCC 607 (agar plate-cylinder); format: cell-based; settings: standard bleomycin A2 (copper-free) assumed 1,000 mcg potency/mg
Method: (§1) 2. ANT[…] MYC[…] ATCC 607 AND BACILLUS SUBTILIS
(§2) The antimicrobial activity was tested against the captioned test organisms by the method of agar plate-cylinder. The activity was recorded on the assumption that the activity of standard sample of bleomycin A2 (copper-free form) is 1,000 mcg poteney/mg.

Bacillus subtilis = assay: Antimicrobial activity against Bacillus subtilis (agar plate-cylinder); format: cell-based; settings: standard bleomycin A2 (copper-free) assumed 1,000 mcg potency/mg
Method: as §1, §2

| SMILES | Antimicrobial potency of Cu-free compound against Mycobacterium smegmatis ATCC 607 [1] [mcg potency/mg] | Antimicrobial potency of Cu-free compound against Bacillus subtilis (Bacillus subtilis) [mcg potency/mg] |
| --- | --- | --- |
| Cc1c(N)nc(C(CC(N)=O)NCC(N)C(=O)NCc2ccco2)nc1C(=O)NC(C(=O)NC(C)C(O)C(C)C(=O)NC(C(=O)NCCc1nc(-c2nc(C(=O)NCCCCNC(=N)N)cs2)cs1)C(C)O)C(OC1OC(CO)C(O)C(O)C1OC1OC(CO)C(O)C(OC(N)=O)C1O)c1cnc[nH]1 (stereo not shown) [Compound 18, 4-Guanidinobutylamino-(amido)N--[2-furylmethyl]-BLM] | 19150 | 1285 |
| Cc1c(N)nc(C(CC(N)=O)NCC(N)C(=O)NCc2cccnc2)nc1C(=O)NC(C(=O)NC(C)C(O)C(C)C(=O)NC(C(=O)NCCc1nc(-c2nc(C(=O)NCCCCNC(=N)N)cs2)cs1)C(C)O)C(OC1OC(CO)C(O)C(O)C1OC1OC(CO)C(O)C(OC(N)=O)C1O)c1cnc[nH]1 (stereo not shown) [Compound 19, 4-Guanidinobutylamino-(amido)N--[3-pyridylmethyl]-BLM] | 5160 | 1010 |
| Cc1c(N)nc(C(CC(N)=O)NCC(N)C(=O)NCc2nccs2)nc1C(=O)NC(C(=O)NC(C)C(O)C(C)C(=O)NC(C(=O)NCCc1nc(-c2nc(C(=O)NCCCCNC(=N)N)cs2)cs1)C(C)O)C(OC1OC(CO)C(O)C(O)C1OC1OC(CO)C(O)C(OC(N)=O)C1O)c1cnc[nH]1 (stereo not shown) [Compound 20, 4-Guanidinobutylamino-(amido)N--[2-thiazolylmethyl]-BLM] | 4870 | 900 |
| Cc1c(N)nc(C(CC(N)=O)NCC(N)C(=O)NCc2ccccc2)nc1C(=O)NC(C(=O)NC(C)C(O)C(C)C(=O)NC(C(=O)NCCc1nc(-c2nc(C(=O)NCCCNC(C)c3ccccc3)cs2)cs1)C(C)O)C(OC1OC(CO)C(O)C(O)C1OC1OC(CO)C(O)C(OC(N)=O)C1O)c1cnc[nH]1 [Compound 23, 3-((S)-1'-phenylethyl)aminopropylamino-(amido)N--[benzyl]-BLM] | 38348 | 1380 |
| Cc1c(N)nc(C(CC(N)=O)NCC(N)C(=O)NCc2ccc(Cl)cc2)nc1C(=O)NC(C(=O)NC(C)C(O)C(C)C(=O)NC(C(=O)NCCc1nc(-c2nc(C(=O)NCCCNC(C)c3ccccc3)cs2)cs1)C(C)O)C(OC1OC(CO)C(O)C(O)C1OC1OC(CO)C(O)C(OC(N)=O)C1O)c1cnc[nH]1 [Compound 24, 3-((S)-1'-phenylethyl)aminopropylamino-(amido)N--[p-chlorobenzyl]-BLM] | 56328 | 1184 |
| CCCCCCCCCCCCCCCCCCNC(=O)C(N)CNC(CC(N)=O)c1nc(N)c(C)c(C(=O)NC(C(=O)NC(C)C(O)C(C)C(=O)NC(C(=O)NCCc2nc(-c3nc(C(=O)NCCCNC(C)c4ccccc4)cs3)cs2)C(C)O)C(OC2OC(CO)C(O)C(O)C2OC2OC(CO)C(O)C(OC(N)=O)C2O)c2cnc[nH]2)n1 [Compound 25, 3-((S)-1'-phenylethylamino)propylamino-(amido)N--[stearyl]-BLM] | 210 | 0 |
| CCCCCCCCCCCCNC(=O)C(N)CNC(CC(N)=O)c1nc(N)c(C)c(C(=O)NC(C(=O)NC(C)C(O)C(C)C(=O)NC(C(=O)NCCc2nc(-c3nc(C(=O)NCCCNC(C)c4ccccc4)cs3)cs2)C(C)O)C(OC2OC(CO)C(O)C(O)C2OC2OC(CO)C(O)C(OC(N)=O)C2O)c2cnc[nH]2)n1 [Compound 26, 3-((S)-1'-phenylethylamino)propylamino-(amido)N--[lauryl]-BLM] | 3920 | 384 |
| CCCCCCCCNC(=O)C(N)CNC(CC(N)=O)c1nc(N)c(C)c(C(=O)NC(C(=O)NC(C)C(O)C(C)C(=O)NC(C(=O)NCCc2nc(-c3nc(C(=O)NCCCNC(C)c4ccccc4)cs3)cs2)C(C)O)C(OC2OC(CO)C(O)C(O)C2OC2OC(CO)C(O)C(OC(N)=O)C2O)c2cnc[nH]2)n1 [Compound 27, 3-((S)-1'-phenylethylamino)propylamino-(amido)N--[octyl]-BLM] | 45100 | 886 |
| COc1ccc2[nH]cc(CCNC(=O)C(N)CNC(CC(N)=O)c3nc(N)c(C)c(C(=O)NC(C(=O)NC(C)C(O)C(C)C(=O)NC(C(=O)NCCc4nc(-c5nc(C(=O)NCCCNC(C)c6ccccc6)cs5)cs4)C(C)O)C(OC4OC(CO)C(O)C(O)C4OC4OC(CO)C(O)C(OC(N)=O)C4O)c4cnc[nH]4)n3)c2c1 [Compound 28, 3-((S)-1'-phenylethylamino)propylamino-(amido)N--[5-methyoxyindol-3-ylethyl]-BLM] | 18650 | 586 |
| Cc1c(N)nc(C(CC(N)=O)NCC(N)C(=O)NCCCCCCCCCCCCN)nc1C(=O)NC(C(=O)NC(C)C(O)C(C)C(=O)NC(C(=O)NCCc1nc(-c2nc(C(=O)NCCCNC(C)c3ccccc3)cs2)cs1)C(C)O)C(OC1OC(CO)C(O)C(O)C1OC1OC(CO)C(O)C(OC(N)=O)C1O)c1cnc[nH]1 [Compound 29, 3-((S)-1'-phenylethylamino)propylamino-(amido)N--[do-decanyl]-BLM] | 14200 | 5400 |
| Cc1c(N)nc(C(CC(N)=O)NCC(N)C(=O)NC(Cc2ccccc2)c2ccccc2)nc1C(=O)NC(C(=O)NC(C)C(O)C(C)C(=O)NC(C(=O)NCCc1nc(-c2nc(C(=O)NCCCNC(C)c3ccccc3)cs2)cs1)C(C)O)C(OC1OC(CO)C(O)C(O)C1OC1OC(CO)C(O)C(OC(N)=O)C1O)c1cnc[nH]1 [Compound 30, 3-((S)-1'-phenylethylamino)propylamino-(amido)N--[1',2'-diphenyl-ethyl]-BLM] | 33802 | 190 |
| Cc1c(N)nc(C(CC(N)=O)NCC(N)C(=O)NC(c2ccccc2)c2ccccc2)nc1C(=O)NC(C(=O)NC(C)C(O)C(C)C(=O)NC(C(=O)NCCc1nc(-c2nc(C(=O)NCCCNC(C)c3ccccc3)cs2)cs1)C(C)O)C(OC1OC(CO)C(O)C(O)C1OC1OC(CO)C(O)C(OC(N)=O)C1O)c1cnc[nH]1 [Compound 31, 3-((S)-1'-phenylethylamino)propylamino-(amido)N--[diphenylmethyl]-BLM] | 54645 | 430 |
| Cc1c(N)nc(C(CC(N)=O)NCC(N)C(=O)NC2CCN(Cc3ccccc3)CC2)nc1C(=O)NC(C(=O)NC(C)C(O)C(C)C(=O)NC(C(=O)NCCc1nc(-c2nc(C(=O)NCCCNC(C)c3ccccc3)cs2)cs1)C(C)O)C(OC1OC(CO)C(O)C(O)C1OC1OC(CO)C(O)C(OC(N)=O)C1O)c1cnc[nH]1 [Compound 35, 3-((S)-1'-phenylethylamino)propylamino-(amido)N--[N--benzyl-piperazin-4-yl]-BLM] | 18537 | 2159 |
| CCCCCCCCNC(=O)C(N)CNC(CC(N)=O)c1nc(N)c(C)c(C(=O)NC(C(=O)NC(C)C(O)C(C)C(=O)NC(C(=O)NCCc2nc(-c3nc(C(=O)NCCCN(C)CCCNCc4ccc(Cl)cc4)cs3)cs2)C(C)O)C(OC2OC(CO)C(O)C(O)C2OC2OC(CO)C(O)C(OC(N)=O)C2O)c2cnc[nH]2)n1 (stereo not shown) [Compound 40, 3-{N--methyl-N--[3-(p-chlorobenzyl)aminopropyl]amino}-propylamino-(amido)N--[octyl]-BLM] | 38200 | 1808 |
| Cc1c(N)nc(C(CC(N)=O)NCC(N)C(=O)NC(Cc2ccccc2)c2ccccc2)nc1C(=O)NC(C(=O)NC(C)C(O)C(C)C(=O)NC(C(=O)NCCc1nc(-c2nc(C(=O)NCCCN(C)CCCNCc3ccc(Cl)cc3)cs2)cs1)C(C)O)C(OC1OC(CO)C(O)C(O)C1OC1OC(CO)C(O)C(OC(N)=O)C1O)c1cnc[nH]1 (stereo not shown) [Compound 41, 3-{N--methyl-N--[3-(p-chlorobenzyl)aminopropyl]amino}propyl-amino-(amido)N--[1,2-diphenylethyl]-BLM] | 23342 | 521 |
| Cc1c(N)nc(C(CC(N)=O)NCC(N)C(=O)NC(C)CCCC(C)C)nc1C(=O)NC(C(=O)NC(C)C(O)C(C)C(=O)NC(C(=O)NCCc1nc(-c2nc(C(=O)NCCCN(C)CCCNCc3ccc(Cl)cc3)cs2)cs1)C(C)O)C(OC1OC(CO)C(O)C(O)C1OC1OC(CO)C(O)C(OC(N)=O)C1O)c1cnc[nH]1 (stereo not shown) [Compound 42, 3-{N--methyl-N--[3-(p-chlorobenzyl)aminopropyl]amino}propyl-amino-(amido)N--[1,5-dimethylhexyl]-BLM] | 31834 | 933 |
| CCCCCCCCNC(=O)C(N)CNC(CC(N)=O)c1nc(N)c(C)c(C(=O)NC(C(=O)NC(C)C(O)C(C)C(=O)NC(C(=O)NCCc2nc(-c3nc(C(=O)NCCCN(C)CCCNCCc4ccc(Cl)cc4)cs3)cs2)C(C)O)C(OC2OC(CO)C(O)C(O)C2OC2OC(CO)C(O)C(OC(N)=O)C2O)c2cnc[nH]2)n1 (stereo not shown) [Compound 44] | 38750 | 1898 |
